# Assay results: ChEMBL document CHEMBL6153125, “Harnessing the Magic Methyl Effect: Discovery of CLPP-2068 as a Novel HsClpP Activator for the Treatment of Diffuse Large B-Cell Lymphoma” (J Med Chem, 2025)
# pEC50, pIC50: −log10 of the molar value.
# Experiments:
# [1] = biological target: ATP-dependent Clp protease proteolytic subunit, mitochondrial (Homo sapiens, UniProt Q16740); experiment: Activation of human ClpP extracted from Escherichia coli using Ac-WLA-AMC as substrate assessed as fluorescence signal measured after 10 mins incubation
# Chain of ATP-dependent Clp protease proteolytic subunit, mitochondrial (Q16740 whole entry): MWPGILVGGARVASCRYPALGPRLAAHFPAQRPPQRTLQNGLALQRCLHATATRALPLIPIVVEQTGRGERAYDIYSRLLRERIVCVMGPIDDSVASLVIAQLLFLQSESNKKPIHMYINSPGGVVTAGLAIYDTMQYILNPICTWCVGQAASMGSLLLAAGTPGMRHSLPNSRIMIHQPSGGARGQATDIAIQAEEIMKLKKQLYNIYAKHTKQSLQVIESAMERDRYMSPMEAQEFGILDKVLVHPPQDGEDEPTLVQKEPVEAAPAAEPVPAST
# SU-DHL-6 = experiment: Antiproliferative activity against human SU-DHL-6 cells assessed as cell viability measured after 72 hrs incubation by CellTiter-based growth inhibition assay; conditions: SU-DHL-6, 72 h
# OCI-Ly3 = experiment: Antiproliferative activity against human OCI-Ly3 cells assessed as cell viability measured after 72 hrs incubation by CellTiter-based growth inhibition assay; conditions: OCI-Ly3, 72 h
# SUD4 = experiment: Antiproliferative activity against human SU-DHL-4 cells assessed as cell viability measured after 72 hrs incubation by CellTiter-based growth inhibition assay; conditions: SU-DHL-4, 72 h
# SU-DHL-2 = experiment: Antiproliferative activity against human SU-DHL-2 cells assessed as cell viability measured after 72 hrs incubation by CellTiter-based growth inhibition assay; conditions: SU-DHL-2, 72 h
# Toledo = experiment: Antiproliferative activity against human Toledo cells assessed as cell viability measured after 72 hrs incubation by CellTiter-based growth inhibition assay
# [2] = Half life in ICR mouse at 10 mg/kg, po measured upto 24 hrs by LC-MS/MS analysis; conditions: in vivo
# [3] = MRT in ICR mouse at 10 mg/kg, po measured upto 24 hrs by LC-MS/MS analysis; conditions: in vivo
# [4] = Half life in ICR mouse at 2 mg/kg, iv measured upto 24 hrs by LC-MS/MS analysis; conditions: in vivo
# [5] = AUCt in ICR mouse at 2 mg/kg, iv measured upto 24 hrs by LC-MS/MS analysis; conditions: in vivo
# [6] = Clearance in ICR mouse at 2 mg/kg, iv measured upto 24 hrs by LC-MS/MS analysis; conditions: in vivo
# [7] = MRT in ICR mouse at 2 mg/kg, iv measured upto 24 hrs by LC-MS/MS analysis; conditions: in vivo
# [8] = Volume of distribution at steady state in ICR mouse at 2 mg/kg measured upto 24 hrs by LC-MS/MS analysis; conditions: in vivo, iv
# [9] = Metabolic stability in rat liver microsomes assessed as half life
# [10] = Metabolic stability in human liver microsomes assessed as half life
# [11] = Metabolic stability in rat liver microsomes assessed as intrinsic clearance
# [12] = Metabolic stability in human liver microsomes assessed as intrinsic clearance
# [13] = Metabolic stability in rat liver microsomes assessed as apparent intrinsic clearance
# [14] = Metabolic stability in human liver microsomes assessed as apparent intrinsic clearance
# [15] = Metabolic stability in rat liver microsomes assessed as hepatic clearance
# [16] = Metabolic stability in human liver microsomes assessed as hepatic clearance
# [17] = Metabolic stability in rat liver microsomes assessed as hepatic extraction
# [18] = Metabolic stability in human liver microsomes assessed as hepatic extraction
# [19] = biological target: Voltage-gated inwardly rectifying potassium channel KCNH2 (Homo sapiens, UniProt Q12809)
# Chain of Voltage-gated inwardly rectifying potassium channel KCNH2 (Q12809 whole entry): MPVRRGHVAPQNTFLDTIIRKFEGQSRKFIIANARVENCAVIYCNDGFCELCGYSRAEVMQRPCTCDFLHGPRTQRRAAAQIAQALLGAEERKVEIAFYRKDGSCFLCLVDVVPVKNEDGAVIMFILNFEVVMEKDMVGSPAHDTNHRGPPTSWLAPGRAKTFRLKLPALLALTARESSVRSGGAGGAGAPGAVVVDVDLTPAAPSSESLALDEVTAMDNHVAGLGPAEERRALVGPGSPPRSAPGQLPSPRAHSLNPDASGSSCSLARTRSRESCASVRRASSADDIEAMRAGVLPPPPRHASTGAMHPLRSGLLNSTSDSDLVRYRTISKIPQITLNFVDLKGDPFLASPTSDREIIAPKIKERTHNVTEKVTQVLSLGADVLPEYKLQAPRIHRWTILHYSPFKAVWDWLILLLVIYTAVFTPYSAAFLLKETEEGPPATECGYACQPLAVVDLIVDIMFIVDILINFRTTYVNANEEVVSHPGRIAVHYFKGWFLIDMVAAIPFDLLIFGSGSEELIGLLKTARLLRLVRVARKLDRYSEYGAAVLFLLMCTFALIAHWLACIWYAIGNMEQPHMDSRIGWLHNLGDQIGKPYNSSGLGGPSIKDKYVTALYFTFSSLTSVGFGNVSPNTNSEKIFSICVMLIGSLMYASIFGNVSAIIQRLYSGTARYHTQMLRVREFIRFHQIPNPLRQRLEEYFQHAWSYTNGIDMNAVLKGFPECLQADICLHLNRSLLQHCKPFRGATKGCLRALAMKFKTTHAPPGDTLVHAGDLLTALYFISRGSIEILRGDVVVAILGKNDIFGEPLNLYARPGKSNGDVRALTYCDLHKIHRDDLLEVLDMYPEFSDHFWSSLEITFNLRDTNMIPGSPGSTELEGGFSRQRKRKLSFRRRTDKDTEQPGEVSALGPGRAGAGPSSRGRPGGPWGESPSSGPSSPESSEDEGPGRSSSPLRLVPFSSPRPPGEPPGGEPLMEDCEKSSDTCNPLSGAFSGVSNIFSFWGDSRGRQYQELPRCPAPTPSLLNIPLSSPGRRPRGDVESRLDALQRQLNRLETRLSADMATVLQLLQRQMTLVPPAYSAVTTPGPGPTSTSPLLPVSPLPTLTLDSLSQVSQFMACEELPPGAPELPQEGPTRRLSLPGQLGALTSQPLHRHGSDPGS
# in vivo [20] = conditions: ICR, mouse, po, 10 mg/kg
# Description: Tmax in ICR mouse at 10 mg/kg, po measured upto 24 hrs by LC-MS/MS analysis
# in vivo [21] = conditions: ICR, mouse, po, 10 mg/kg; remark: listed apart in the source
# Description: Cmax in ICR mouse at 10 mg/kg, po measured upto 24 hrs by LC-MS/MS analysis
# in vivo [22] = conditions: ICR, mouse, po, 10 mg/kg; remark: listed apart in the source
# Description: AUC (0 to t) in ICR mouse at 10 mg/kg, po measured upto 24 hrs by LC-MS/MS analysis
# in vivo [23] = conditions: ICR, mouse, po, 10 mg/kg; remark: listed apart in the source
# Description: Oral bioavailability in ICR mouse at 10 mg/kg measured upto 24 hrs by LC-MS/MS analysis
structure (smiles),measurement,setting,value
O=C1C2=C(CCN(Cc3ccccc3)C2)N2CCN=C2N1Cc1ccc(C(F)(F)F)cc1,pEC50,[1],6.81
same,pIC50,SU-DHL-6,7.04
same,pIC50,OCI-Ly3,6.83
same,pIC50,SUD4,6.60
same,pIC50,SU-DHL-2,6.65
same,pIC50,Toledo,< 6.60
same,half-life at 24 h,[2],3.75 h
same,MRT at 24 h,[3],4.65 h
same,half-life at 24 h,[4],2.01 h
same,AUC(0-t) at 24 h,[5],1530 ng·h/mL
same,clearance at 24 h,[6],21.8 mL/min/kg
same,MRT at 24 h,[7],1.72 h
same,Vd at 24 h,[8],2.25 L/kg
same,half-life,[9],7.1 h
same,half-life,[10],10.2 h
same,CLint scaled,[11],487 mL/min/kg
same,CLint scaled,[12],338 mL/min/kg
same,CLint scaled,[13],876 mL/min/kg
same,CLint scaled,[14],396 mL/min/kg
same,CLhep predicted,[15],51.9 mL/min/kg
same,CLhep predicted,[16],19.7 mL/min/kg
same,hepatic extraction ratio,[17],0.941
same,hepatic extraction ratio,[18],0.95
same,pIC50,[19],< 4.40
same,Tmax at 24 h,in vivo [20],0.42 h
same,Cmax at 24 h,in vivo [21],873 ng/mL
same,AUC(0-t) at 24 h,in vivo [22],3350 ng·h/mL
same,bioavailability at 24 h,in vivo [23],43.7%
